Reference: ChEMBL document CHEMBL2074503, “Role of organic anion-transporting polypeptides, OATP-A, OATP-C and OATP-8, in the human placenta-maternal liver tandem excretory pathway for foetal bilirubin” (Biochem J, 2003)
Blank lines part the entries; values can stand above or below the molecule they belong to.

What was measured:
[1] = target: T1, Solute carrier organic anion transporter family member 1B1 (Homo sapiens, UniProt Q9Y6L6); assay: (§1) TP_TRANSPORTER: inhibition of E217betaG uptake (E217betaG: 10 uM) by Bilirubin at a concentration of 100 u M in Xenopus laevis oocytes; type: functional, cell-based; conditions: oocyte, 100 µM
T1 sequence (Q9Y6L6 whole entry): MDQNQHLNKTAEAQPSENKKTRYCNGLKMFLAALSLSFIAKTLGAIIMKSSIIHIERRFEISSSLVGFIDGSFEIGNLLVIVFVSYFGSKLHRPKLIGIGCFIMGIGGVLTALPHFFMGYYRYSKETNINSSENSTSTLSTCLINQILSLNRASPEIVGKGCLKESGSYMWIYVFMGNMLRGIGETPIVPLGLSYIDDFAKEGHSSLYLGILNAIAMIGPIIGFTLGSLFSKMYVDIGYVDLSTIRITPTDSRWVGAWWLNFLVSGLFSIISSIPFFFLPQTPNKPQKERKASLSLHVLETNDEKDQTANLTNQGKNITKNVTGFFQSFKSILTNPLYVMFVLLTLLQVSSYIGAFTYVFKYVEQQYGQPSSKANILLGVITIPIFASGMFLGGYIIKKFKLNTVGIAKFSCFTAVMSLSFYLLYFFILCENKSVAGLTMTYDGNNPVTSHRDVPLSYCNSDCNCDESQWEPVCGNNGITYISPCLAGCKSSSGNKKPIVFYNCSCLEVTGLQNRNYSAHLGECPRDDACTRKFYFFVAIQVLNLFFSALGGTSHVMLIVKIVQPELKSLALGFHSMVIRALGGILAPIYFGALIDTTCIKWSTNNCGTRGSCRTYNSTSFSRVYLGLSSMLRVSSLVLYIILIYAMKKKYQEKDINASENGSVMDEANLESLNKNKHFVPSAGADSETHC

[2] = target: T2, Solute carrier organic anion transporter family member 1A2 (Homo sapiens, UniProt P46721); assay: as §1; type: functional, cell-based; conditions: oocyte, 100 µM
T2 sequence (P46721 whole entry): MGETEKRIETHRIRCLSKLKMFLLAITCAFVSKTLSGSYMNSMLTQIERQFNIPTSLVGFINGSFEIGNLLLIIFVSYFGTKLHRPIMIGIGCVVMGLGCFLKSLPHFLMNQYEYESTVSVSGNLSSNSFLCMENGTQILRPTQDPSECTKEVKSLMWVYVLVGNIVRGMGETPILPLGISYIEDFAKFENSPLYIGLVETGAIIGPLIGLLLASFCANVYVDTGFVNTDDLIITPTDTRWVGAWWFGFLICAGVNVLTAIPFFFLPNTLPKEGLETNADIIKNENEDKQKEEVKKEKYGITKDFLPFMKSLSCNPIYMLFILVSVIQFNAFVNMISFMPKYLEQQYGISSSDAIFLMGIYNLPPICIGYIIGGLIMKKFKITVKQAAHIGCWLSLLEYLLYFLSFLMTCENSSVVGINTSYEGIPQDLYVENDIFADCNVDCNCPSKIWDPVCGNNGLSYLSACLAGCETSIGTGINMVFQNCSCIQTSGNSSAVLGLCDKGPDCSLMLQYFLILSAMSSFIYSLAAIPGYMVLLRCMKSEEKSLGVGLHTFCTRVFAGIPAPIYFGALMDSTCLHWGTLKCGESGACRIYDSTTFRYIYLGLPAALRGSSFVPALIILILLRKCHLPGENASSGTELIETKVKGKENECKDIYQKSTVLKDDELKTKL

[3] = target: T3, Solute carrier organic anion transporter family member 1B3 (Homo sapiens, UniProt Q9NPD5); assay: as §1; type: functional, cell-based; conditions: oocyte, 100 µM
T3 sequence (Q9NPD5 whole entry): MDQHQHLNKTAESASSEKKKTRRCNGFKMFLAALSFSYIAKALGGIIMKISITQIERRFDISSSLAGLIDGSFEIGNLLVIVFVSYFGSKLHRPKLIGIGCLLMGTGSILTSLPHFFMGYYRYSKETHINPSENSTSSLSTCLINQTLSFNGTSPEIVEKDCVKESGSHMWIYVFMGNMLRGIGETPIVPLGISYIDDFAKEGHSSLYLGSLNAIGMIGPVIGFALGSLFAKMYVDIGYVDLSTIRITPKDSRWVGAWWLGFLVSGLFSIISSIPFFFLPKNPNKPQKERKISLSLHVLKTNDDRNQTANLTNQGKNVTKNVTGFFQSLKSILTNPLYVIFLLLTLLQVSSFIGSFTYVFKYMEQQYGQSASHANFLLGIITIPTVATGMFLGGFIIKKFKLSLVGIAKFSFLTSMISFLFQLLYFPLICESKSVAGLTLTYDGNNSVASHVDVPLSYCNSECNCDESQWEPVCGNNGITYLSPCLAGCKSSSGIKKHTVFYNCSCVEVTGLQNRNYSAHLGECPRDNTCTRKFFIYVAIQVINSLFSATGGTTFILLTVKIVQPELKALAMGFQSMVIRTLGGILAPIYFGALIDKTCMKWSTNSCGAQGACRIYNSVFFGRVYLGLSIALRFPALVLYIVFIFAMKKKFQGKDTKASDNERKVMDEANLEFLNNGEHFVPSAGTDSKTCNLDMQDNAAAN

[4] = target: T4, Solute carrier organic anion transporter family member 1B3 (OATP1B3) (Homo sapiens, UniProt Q9NPD5); assay: (§2) TP_TRANSPORTER: uptake in Xenopus laevis oocytes; type: functional, cell-based, Oocyte; conditions: Xenopus laevis oocytes expressing OATP1B3 (SLCO1B3)
T4 sequence (Q9NPD5 whole entry): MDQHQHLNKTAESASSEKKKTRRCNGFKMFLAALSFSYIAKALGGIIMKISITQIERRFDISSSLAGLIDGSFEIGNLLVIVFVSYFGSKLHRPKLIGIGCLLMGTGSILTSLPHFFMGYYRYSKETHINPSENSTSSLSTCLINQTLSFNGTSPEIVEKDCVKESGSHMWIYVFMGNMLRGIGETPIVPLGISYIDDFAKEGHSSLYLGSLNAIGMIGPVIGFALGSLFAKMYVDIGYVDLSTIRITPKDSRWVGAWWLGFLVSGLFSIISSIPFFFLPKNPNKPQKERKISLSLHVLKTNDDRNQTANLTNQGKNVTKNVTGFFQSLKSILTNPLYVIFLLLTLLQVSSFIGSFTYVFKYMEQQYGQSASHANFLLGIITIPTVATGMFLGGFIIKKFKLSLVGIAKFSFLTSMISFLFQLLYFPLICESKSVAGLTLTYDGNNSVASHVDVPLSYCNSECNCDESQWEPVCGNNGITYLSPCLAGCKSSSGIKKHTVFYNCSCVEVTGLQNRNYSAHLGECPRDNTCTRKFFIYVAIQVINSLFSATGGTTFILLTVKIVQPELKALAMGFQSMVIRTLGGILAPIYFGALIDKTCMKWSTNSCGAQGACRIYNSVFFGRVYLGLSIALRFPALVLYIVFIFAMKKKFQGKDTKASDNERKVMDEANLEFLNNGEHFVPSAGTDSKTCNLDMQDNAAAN

[5] = target: T1, Solute carrier organic anion transporter family member 1B1; assay: (§3) TP_TRANSPORTER: inhibition of UCB uptake (UCB: 10 uM) by Estradiol-17beta-D-glucuronide at a concentration of 100 u M in Xenopus laevis oocytes; type: functional, cell-based; conditions: oocyte, 100 µM
[6] = target: T2, Solute carrier organic anion transporter family member 1A2; assay: as §3; type: functional, cell-based; conditions: oocyte, 100 µM
[7] = target: T3, Solute carrier organic anion transporter family member 1B3; assay: as §3; type: functional, cell-based; conditions: oocyte, 100 µM
[8] = substrate: C=CC1=C(C)/C(=C/c2[nH]c(Cc3[nH]c(/C=C4\NC(=O)C(C)=C4C=C)c(C)c3CCC(=O)O)c(CCC(=O)O)c2C)NC1=O; assay: as §2; type: functional, cell-based, Oocyte

Activity [1]: inhibitor [+]
Activity [2]: inhibitor [+]
Activity [3]: inhibitor [+]
Km [4]: 0.0391 µM
Molecule: C=CC1=C(C)/C(=C/c2[nH]c(Cc3[nH]c(/C=C4\NC(=O)C(C)=C4C=C)c(C)c3CCC(=O)O)c(CCC(=O)O)c2C)NC1=O [BILIRUBIN]

Molecule: C[C@]12CC[C@@H]3c4ccc(O)cc4CC[C@H]3[C@@H]1CC[C@@H]2O[C@@H]1O[C@H](C(=O)O)[C@@H](O)[C@H](O)[C@H]1O [ESTRADIOL 17B GLUCURONIDE]
Activity [5]: inhibitor [+]
Activity [6]: inhibitor [+]
Activity [7]: inhibitor [+]

B1: Solute carrier organic anion transporter family member 1B1 (Homo sapiens) (protein)
chain: MDQNQHLNKTAEAQPSENKKTRYCNGLKMFLAALSLSFIAKTLGAIIMKSSIIHIERRFEISSSLVGFIDGSFEIGNLLVIVFVSYFGSKLHRPKLIGIGCFIMGIGGVLTALPHFFMGYYRYSKETNINSSENSTSTLSTCLINQILSLNRASPEIVGKGCLKESGSYMWIYVFMGNMLRGIGETPIVPLGLSYIDDFAKEGHSSLYLGILNAIAMIGPIIGFTLGSLFSKMYVDIGYVDLSTIRITPTDSRWVGAWWLNFLVSGLFSIISSIPFFFLPQTPNKPQKERKASLSLHVLETNDEKDQTANLTNQGKNITKNVTGFFQSFKSILTNPLYVMFVLLTLLQVSSYIGAFTYVFKYVEQQYGQPSSKANILLGVITIPIFASGMFLGGYIIKKFKLNTVGIAKFSCFTAVMSLSFYLLYFFILCENKSVAGLTMTYDGNNPVTSHRDVPLSYCNSDCNCDESQWEPVCGNNGITYISPCLAGCKSSSGNKKPIVFYNCSCLEVTGLQNRNYSAHLGECPRDDACTRKFYFFVAIQVLNLFFSALGGTSHVMLIVKIVQPELKSLALGFHSMVIRALGGILAPIYFGALIDTTCIKWSTNNCGTRGSCRTYNSTSFSRVYLGLSSMLRVSSLVLYIILIYAMKKKYQEKDINASENGSVMDEANLESLNKNKHFVPSAGADSETHC
Km [8]: 0.0076 µM
